# Several values for one entry are separate records, joined by “and”; a condition that tells them apart may be missing. Equal values may be shown once. Read-outs that look alike come from different tables or passages of the source.
# How the values were obtained:
# Wnt/β-catenin signaling = experiment: GeneBLAzer beta-lactamase Wnt transcription reporter assay, LEF/TCF-bla HCT-116 cells; type: cell-based
# From the text: ICG001 was used as a comparison. The GeneBLAzer uses CellSensor™ LEF/TCF-bla HCT-116 cells that contain a beta-lactamase (BLA) reporter gene under the control of the β-catenin/LEF/TCF response element stably integrated into HCT-116 cells, as shown in FIG. 5A. These cells constitutively express beta-lactamase and can be used to detect agonists and antagonists of the Wnt/β-catenin signaling pathway. The GeneBLAzer assay provides a ratiometric reporter response involving a two-color (blue/green) readout of stimulated and unstimulated cells.
# LEF/TCF-bla HCT-116 cells were plated in assay medium (Invitrogen) on clear-bottom plates and incubated overnight at 37° C. […] Cells were next incubated with the Wnt agonist, mWnt3a (provided in the GeneBLAzer kit) for 5 hours at 37° C. Substrate mixture (containing LiveBLAzer™ B/G substrate that employs CCF4-AM, a FRET substrate for beta-lactamase) was added to the wells, and the plate was incubated for 2.5 hours at room temperature in the dark. Black-walled, clear-bottom, 384-well plates (Corning Costar) were used with scanning done with a Spectramax M2. Plates were scanned first (Scan 1 in the blue channel) with excitation filter 409/20 nm and emission filter 460/40 nm. Plates were then scanned (Scan 2 in the green channel) with excitation filer 409/20 nm and emission filter 530/30 nm.
# CT26 cells [1] = experiment: cells
# Protocol: CT26 cells were grown in F-bottom plates over 5 days. […] CellTiterGlo (Promega) cell viability assay. […] Doxorubicin is a known inhibitor of cell growth and was included as a control.
# JAK/STAT = JAK/STAT transcription assay (SIE-bla ME-180 cell line); type: cell-based
# From the text: In these assays, the trifluoroacetic salt form of WX-024 was used.
# CT26 cells [2] = experiment: CT26 syngeneic mouse model of colon cancer (Balb/c); type: in vivo, mice
# Protocol: The syngeneic mouse model of colon cancer using CT26 was then assessed. Male Balb/c mice were injected subcutaneously in the right flank with 5×10^4 CT26 cells each at approximately 5 weeks of age. […] Eight mice were included in each treatment group.
# The whole blood was taken from each mouse. Lymphocytes were purified from the blood samples by Ficoll, and the cells were stained with fluorescent anti-CD4 antibody. Data were measured by flow cytometry.
# As described above, the whole blood was taken from each mouse. Lymphocytes were purified from blood by Ficoll, and the cells were stained with fluorescent anti-CD8 antibody. Data were measured by flow cytometry.
# To further assess whether WX-024 is capable of modulating a tumor microenvironment, tumor and blood samples were collected in anticoagulation tubes at the end of the study. Single cells separation was performed and then cells were stained for FACS analysis. For cell surface staining, CD45-PerCP-Cy5, CD4-FITC, CD8-PE-Cy7, and CD25-PE were used. For intranuclear staining, cells were permeabilized overnight and then stained with Foxp3-APC for 60 minutes.
# The in vivo efficacy of WX-035 in treating a cancer was assessed in a syngeneic mouse model, following the procedures described in Example 5.3. Trametinib, a known MEK inhibitor, was used as a comparison. Briefly, balb/c mice were inoculated with CT26 and treatment started when tumor volume reached to about 100 mm^3. The mice were then divided into three groups and began administered with a vehicle, 40 mg/kg WX-035, or 1 mg/kg trametinib for 7 consecutive days.
# At the end of the study described in Example 9.2, a tumor sample from each mouse was collected to assess the effect of WX-035 in modulating T cell activation. The FACS analysis of each tumor sample was performed following the procedure described in Example 5. A shown in FIG. 36A, treatment with WX-035 reduced the total amount of CD45^+ cells. […] Likewise, Foxp3^+ CD25^+ T cells were reduced by WX-035 treatment (FIG. 36C). […] Furthermore, by increasing the ratio of cytotoxic T cells over regulatory T cells, WX-035 may induce a microenvironment that favors an immune reaction beneficial for tumor treatment. Of note, the samples collected from this experiment were also assessed for LGR5 expression.
# [3] = 20 mg/kg, after 2 weeks of daily dosing
smiles,measurement,setting,value
"CC[C@H](C)[C@@H]1NC(=O)[C@@](C)(NC(=O)[C@H](CCCNC(=N)N)NC(=O)[C@H](CC(C)C)NC(=O)[C@@H](NC(=O)[C@H](CCC(N)=O)NC(=O)[C@H](CC(C)C)NC(C)=O)[C@@H](C)O)CCCC=CCCC[C@@](C)(C(=O)N[C@@H](CC(C)C)C(=O)N[C@@H](Cc2ccc3ccccc3c2)C(N)=O)NC(=O)[C@H](CCCNC(=N)N)NC(=O)[C@H](CCC(N)=O)NC1=O [WX-024, LQTLRXaa1IQRXaa2L]",IC50,"Wnt/β-catenin signaling; LEF/TCF-bla HCT-116 cells, read-out: IC50, Wnt transcription",191 nM and ~200 nM
same,IC50,"Wnt/β-catenin signaling; acetate salt form, read-out: IC50, Wnt transcription inhibition",292 nM
same,IC50,"Wnt/β-catenin signaling; hydrochloric salt, read-out: IC50, Wnt transcription inhibition",313 nM
same,IC50,CT26 cells [1],1750 nM
same,IC50,"JAK/STAT; Example 4.5, read-out: IC50, JAK/STAT transcription assay",> 10 µM
same,IC50,"JAK/STAT; summary, Example 6, read-out: IC50, JAK/STAT reporter assay",> 0.1 µM
same,tumor volume over time compared to vehicle,"CT26 cells [2]; 20 mg/kg i.p. daily, 14 days",substantially lower
same,tumor growth inhibition (TGI),"CT26 cells [2]; 20 mg/kg i.p. daily, after 3 days of dosing",89.2%
same,tumor growth inhibition (TGI),"CT26 cells [2]; 20 mg/kg i.p. daily, after 12 days of dosing",70.0%
same,active β-catenin expression in tumors,"CT26 cells [2]; 20 mg/kg, 14 days",capable of suppressing active β-catenin expression in tumors
same,CD4+ T cell counts in blood,CT26 cells [2]; [3],increase
same,CD8+ T cell counts in blood,CT26 cells [2]; [3],increase
same,regulatory T cells in CD4+ T cell populations in tumor,"CT26 cells [2]; 20 mg/kg, end of study",significantly reduced

# Reference: patent US12264185B2, “Stabilized BCL9 peptides for treatment of aberrant Wnt signaling” (WntRx Pharmaceuticals Inc., priority 2015, dated 2025)
